# Results taken from patent publication US11964960B2 (Cornell University, priority 2018, dated 2024).
# Target: T1, S1P2 (Homo sapiens, UniProt O95136)
# T1 construct: Flag; expressed in transfected cells; host or cells: Chinese hamster ovary (CHO) cells, doxycycline-inducible (CHO-S1P2-FL / CHO-S1PR2 FL)
# Test: GLISA RhoA activation - antagonist assay
# Type: cell-based
# Settings: 1 μM compound, CHO-S1P2-FL cells
# Protocol: GLISA RhoA Activation—Antagonist Assay
# GLISA assays were performed using RhoA (BK124) activation kit purchased from Cytoskeleton Inc., Denver, CO Doxycycline-inducible Flag-tag S1P2 expressing Chinese hamster ovary (CHO) cells (CHO-S1P2-FL) were seeded in a 6-well plate, 1.5×10^5 cells per well. Cells were stimulated with […] of Doxycycline to induce S1P2 expression in serum free IMDM media with 0.1% BSA/PBS. Following day, cells were stimulated with the compounds described herein (1 nM-10 μM) or 1 μM JTE-013 for 1 hour at 37° C. Following compound incubation, cells were washed with PBS×3 and induced with 100 nM […] for 5 min. […] Protein concentration was examined using GLISA—Precision Red Advanced Protein assay reagent as described in assay manual. Lysates were immobilized on GTP-bound capture plate and GLISA assay was performed based on manufacture recommendations as reported previously.
# T1 sequence (O95136 whole entry, species assumed): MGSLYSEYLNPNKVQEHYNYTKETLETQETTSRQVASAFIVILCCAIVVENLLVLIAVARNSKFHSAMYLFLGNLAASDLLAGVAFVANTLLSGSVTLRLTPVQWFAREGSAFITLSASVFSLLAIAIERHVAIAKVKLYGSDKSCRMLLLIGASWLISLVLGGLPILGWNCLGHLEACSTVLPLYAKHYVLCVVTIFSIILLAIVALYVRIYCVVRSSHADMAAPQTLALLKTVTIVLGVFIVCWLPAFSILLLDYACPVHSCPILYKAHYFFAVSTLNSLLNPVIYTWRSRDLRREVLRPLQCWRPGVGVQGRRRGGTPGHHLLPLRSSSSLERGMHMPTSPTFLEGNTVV
row,Structure (SMILES),inhibition at 1 µM [%]
1,"CC#Cc1ccc(=O)n(CC(=O)c2cc(C)n(Cc3ccccc3)c2C)c1 [Compound 26, 1-(2-(1-benzyl-2,5-dimethyl-1H-pyrrol-3-yl)-2-oxoethyl)-5-(prop-1-yn-1-yl)pyridin-2(1H)-one]",55
2,"Cc1ccccc1Cn1c(C)cc(C(=O)C(C)n2cc(Br)ccc2=O)c1C (centres unmarked) [Example 64, 5-Bromo-1-(1-(2,5-dimethyl-1-(2-methylbenzyl)-1H-pyrrol-3-yl)-1-oxopropan-2-yl)pyridin-2(1H)-one]",< 10
3,"Cc1cc(C(=O)Cn2cc(Br)ccc2=O)c(C)n1Cc1ccc(F)cc1 [Compound 28, 5-bromo-1-(2-(1-(4-fluorobenzyl)-2,5-dimethyl-1H-pyrrol-3-yl)-2-oxoethyl)pyridin-2(1H)-one]",58
4,"Cc1cc(C(=O)C(C)n2cc(Br)ccc2=O)c(C)n1Cc1ccncc1 (centres unmarked) [Compound 25, 5-bromo-1-(1-(2,5-dimethyl-1-(pyridin-4-ylmethyl)-1H-pyrrol-3-yl)-1-oxopropan-2-yl)pyridin-2(1H)-one]",39
5,"Cc1cc(C(=O)Cn2cc(C#N)ccc2=O)c(C)n1CCc1ccccc1 [Example 91, 1-(2-(2,5-Dimethyl-1-phenethyl-1H-pyrrol-3-yl)-2-oxoethyl)-6-oxo-1,6-dihydropyridine-3-carbonitrile]",12
6,"Cc1cc(C(=O)C(C)n2cc(Br)ccc2=O)c(C)n1Cc1cccc(F)c1 (centres unmarked) [Example 62, 5-Bromo-1-(1-(1-(3-fluorobenzyl)-2,5-dimethyl-1H-pyrrol-3-yl)-1-oxopropan-2-yl)pyridin-2(1H)-one]",11
7,"O=C(Cn1cc(Br)ccc1=O)N1CCC(Cc2ccc(F)cc2)C1 (centres unmarked) [Example 66, 5-Bromo-1-(2-(3-(4-fluorobenzyl)pyrrolidin-1-yl)-2-oxoethyl)pyridin-2(1H)-one]",< 10
8,"Cc1ccc(Cn2c(C)cc(C(=O)C(C)n3cc(Br)ccc3=O)c2C)cc1 (centres unmarked) [Example 65, 5-Bromo-1-(1-(2,5-dimethyl-1-(4-methylbenzyl)-1H-pyrrol-3-yl)-1-oxopropan-2-yl)pyridin-2(1H)-one]",11
9,"Cc1noc(Cn2c(C)cc(C(=O)C(C)n3cc(Br)ccc3=O)c2C)n1 (centres unmarked) [Compound 6, 5-bromo-1-(1-(2,5-dimethyl-1-((3-methyl-1,2,4-oxadiazol-5-yl)methyl)-1H-pyrrol-3-yl)-1-oxopropan-2-yl)pyridin-2(1H)-one]",29
10,"C#Cc1ccc(=O)n(CC(=O)c2cc(C)n(Cc3ccc(F)cc3)n2)c1 [Compound 31, 5-ethynyl-1-(2-(1-(4-fluorobenzyl)-5-methyl-1H-pyrazol-3-yl)-2-oxoethyl)pyridin-2(1H)-one]",69
11,"O=C(Cn1cc(Br)ccc1=O)N1CCC(c2ccc(F)cc2)C1 (centres unmarked) [Example 67, 5-Bromo-1-(2-(3-(4-fluorophenyl)pyrrolidin-1-yl)-2-oxoethyl)pyridin-2(1H)-one]",42
12,"Cc1cc(C(=O)C(C)n2cc(Br)ccc2=O)c(C)n1Cc1cccc(C#N)c1 (centres unmarked) [Compound 15, 3-((3-(2-(5-bromo-2-oxopyridin-1(2H)-yl)propanoyl)-2,5-dimethyl-1H-pyrrol-1-yl)methyl)benzonitrile]",70
13,"Cc1cc(C(=O)C(C)n2cc(Br)ccc2=O)c(C)n1CC1CC1 (centres unmarked) [Example 58, 5-Bromo-1-(1-(1-(cyclopropylmethyl)-2,5-dimethyl-1H-pyrrol-3-yl)-1-oxopropan-2-yl)pyridin-2(1H)-one]",< 10
14,"Cc1cc(C(=O)C(C)n2cc(Br)ccc2=O)c(C)n1Cc1cccnc1 (centres unmarked) [Compound 24, 5-bromo-1-(1-(2,5-dimethyl-1-(pyridin-3-ylmethyl)-1H-pyrrol-3-yl)-1-oxopropan-2-yl)pyridin-2(1H)-one]",73
15,"COc1ccc(Cn2c(C)cc(C(=O)C(C)n3cc(Br)ccc3=O)c2C)cc1 (centres unmarked) [Example 61, 5-Bromo-1-(1-(1-(4-methoxybenzyl)-2,5-dimethyl-1H-pyrrol-3-yl)-1-oxopropan-2-yl)pyridin-2(1H)-one]",18
16,"Cc1cc(C(=O)C(C)n2cc(Br)ccc2=O)c(C)n1Cc1ccc(S(C)(=O)=O)cc1 (centres unmarked) [Compound 13, 5-bromo-1-(1-(2,5-dimethyl-1-(4-(methylsulfonyl)benzyl)-1H-pyrrol-3-yl)-1-oxopropan-2-yl)pyridin-2(1H)-one]",29
17,"Cc1cc(C(=O)C(C)n2cc(Br)ccc2=O)c(C)n1Cc1cccc(S(C)(=O)=O)c1 (centres unmarked) [Compound 14, 5-bromo-1-(1-(2,5-dimethyl-1-(3-(methylsulfonyl)benzyl)-1H-1-pyrrol-3-yl)-1-oxopropan-2-yl)pyridin-2(1H)-one]",35
18,"Cc1cc(C(=O)C(C)n2cc(Br)ccc2=O)c(C)n1Cc1ccc(F)cc1 (centres unmarked) [Compound 18, 5-bromo-1-(1-(1-(4-fluorobenzyl)-2,5-dimethyl-1H-pyrrol-3-yl)-1-oxopropan-2-yl)pyridin-2(1H)-one]",76
19,"Cc1cc(C(=O)C(C)n2cc(Br)ccc2=O)c(C)n1Cc1ncccn1 (centres unmarked) [Compound 7, 5-bromo-1-(1-(2,5-dimethyl-1-(pyrimidin-2-ylmethyl)-1H-pyrrol-3-yl)-1-oxopropan-2-yl)pyridin-2(1H)-one]",58

# Same assay, conditions: CHO-S1P2-FL cells, 1 hour compound incubation, then for 5 min
row,Structure (SMILES),IC50 [nM]
1,"CC#Cc1ccc(=O)n(CC(=O)c2cc(C)n(Cc3ccccc3)c2C)c1 [Compound 26, 1-(2-(1-benzyl-2,5-dimethyl-1H-pyrrol-3-yl)-2-oxoethyl)-5-(prop-1-yn-1-yl)pyridin-2(1H)-one]",194
2,"Cc1cc(C(=O)Cn2cc(Cl)ccc2=O)c(C)n1Cc1ccccc1 [Example 45, 1-(2-(1-Benzyl-2,5-dimethyl-1H-pyrrol-3-yl)-2-oxoethyl)-5-chloropyridin-2(1H)-one]",> 10000
3,"Cc1cc(=O)n(CC(=O)c2cc(C)n(Cc3ccccc3)c2C)cc1C#N [Example 49, 1-(2-(1-Benzyl-2,5-dimethyl-1H-pyrrol-3-yl)-2-oxoethyl)-4-methyl-6-oxo-1,6-dihydropyridine-3-carbonitrile]",> 10000
4,"Cc1c(C(=O)Cn2nc(Br)ccc2=O)cnn1Cc1ccccc1 [Example 55, 2-(2-(1-Benzyl-5-methyl-1H-pyrazol-4-yl)-2-oxoethyl)-6-bromopyridazin-3(2H)-one]",110
5,"Cc1c(C(=O)Cn2c(F)c(Br)ccc2=O)cnn1Cc1ccccc1 [Example 71, 1-(2-(1-Benzyl-5-methyl-1H-pyrazol-4-yl)-2-oxoethyl)-5-bromo-6-fluoropyridin-2(1H)-one]",22
6,"C#Cc1ccc(=O)n(C(C)C(=O)c2cnn(Cc3ccc(F)cc3F)c2C)n1 (centres unmarked) [Example 75, 2-(1-(1-(2,4-Difluorobenzyl)-5-methyl-1H-pyrazol-4-yl)-1-oxopropan-2-yl)-6-ethynylpyridazin-3(2H)-one]",58
7,C#Cc1ccc(=O)n(C(C)C(=O)c2cnn(Cc3ccccn3)c2C)c1 (centres unmarked) [Example 77],100
8,"Cc1cc(C(=O)Cn2c(C)c(C#N)ccc2=O)c(C)n1Cc1ccccc1 [Example 44, 1-(2-(1-Benzyl-2,5-dimethyl-1H-pyrrol-3-yl)-2-oxoethyl)-2-methyl-6-oxo-1,6-dihydropyridine-3-carbonitrile]",> 10000
9,"C=Cc1ccc(=O)n(CC(=O)c2cnn(Cc3ccccc3)c2C(F)F)c1 [Example 87, 1-(2-(1-Benzyl-5-(difluoromethyl)-1H-pyrazol-4-yl)-2-oxoethyl)-5-vinylpyridin-2(1H)-one]",107
10,"C=Cc1ccc(=O)n(CC(=O)c2c(C)nn(Cc3ccccc3)c2C)c1 [Example 86, 1-(2-(1-Benzyl-3,5-dimethyl-1H-pyrazol-4-yl)-2-oxoethyl)-5-vinylpyridin-2(1H)-one]",92
11,"C#Cc1ccc(=O)n(CC(=O)c2cc(C)n(Cc3ccc(F)cc3)n2)c1 [Compound 31, 5-ethynyl-1-(2-(1-(4-fluorobenzyl)-5-methyl-1H-pyrazol-3-yl)-2-oxoethyl)pyridin-2(1H)-one]",253
12,"C=Cc1ccc(=O)n(C(C)C(=O)c2cnn(Cc3ccccc3)c2C)n1 (centres unmarked) [Example 76, 2-(1-(1-Benzyl-5-methyl-1H-pyrazol-4-yl)-1-oxopropan-2-yl)-6-vinylpyridazin-3(2H)-one]",130
13,"Cc1cc(C(=O)Cn2cc(C(=O)O)ccc2=O)c(C)n1Cc1ccccc1 [Example 46, 1-(2-(1-Benzyl-2,5-dimethyl-1H-pyrrol-3-yl)-2-oxoethyl)-6-oxo-1,6-dihydropyridine-3-carboxylic Acid]",> 10000
14,"Cc1cc(C(=O)C(C)n2cc(C#N)ccc2=O)c(C)n1Cc1ccccc1 (centres unmarked) [Example 52, 1-(1-(1-Benzyl-2,5-dimethyl-1H-pyrrol-3-yl)-1-oxopropan-2-yl)-6-oxo-1,6-dihydropyridine-3-carbonitrile]",> 10000
15,"C#Cc1ccc(=O)n(CC(=O)c2nnn(Cc3ccccc3)c2C)c1 [Example 88, 1-(2-(1-Benzyl-5-methyl-1H-1,2,3-triazol-4-yl)-2-oxoethyl)-5-ethynylpyridin-2(1H)-one]",72
16,"CC(=O)Nc1ccc(=O)n(CC(=O)c2cc(C)n(Cc3ccccc3)c2C)c1 [Example 54, N-(1-(2-(1-Benzyl-2,5-dimethyl-1H-pyrrol-3-0)-2-oxoethyl)-6-oxo-1,6-dihydropyridin-3-yl)acetamide]",> 10000
17,"C=C(c1ccc(=O)n(CC(=O)c2cnn(Cc3ccccc3)c2C)c1)C(F)(F)F [Example 84, 1-(2-(1-Benzyl-5-methyl-1H-pyrazol-4-yl)-2-oxoethyl)-5-(3,3,3-trifluoroprop-1-en-2-yl)pyridin-2(1H)-one]",43
18,"Cc1c(C(=O)Cn2cc(Br)cnc2=O)cnn1Cc1ccccc1 [Example 56, 1-(2-(1-Benzyl-5-methyl-1H-pyrazol-4-yl)-2-oxoethyl)-5-bromopyrimidin-2(1H)-one]",200
19,"C=Cc1ccc(=O)n(CC(=O)c2cnn(Cc3ccccc3)c2CC)c1 [Example 85, 1-(2-(1-Benzyl-5-ethyl-1H-pyrazol-4-yl)-2-oxoethyl)-5-vinylpyridin-2(1H)-one]",108
